In patent publication US10202361B2, “Pyridazinones as herbicides” (E I DU PONT DE NEMOURS AND COMPANY, priority 2014, dated 2019):

Tests used:
Assay in all cases: Test D pre-/postemergence controlled growth environment herbicide test
Format in all cases: in vivo
Details in all cases: scale 0 to 100
[1] = system: chamomile (scentless chamomile, Matricaria inodora)
Excerpt: (§1) Seeds of plant species selected from bluegrass (annual bluegrass, Poa annua), blackgrass (Alopecurus myosuroides), canarygrass (Phalaris minor), chickweed (common chickweed, Stellaria media), galium (catchweed bedstraw, Galium aparine), downy bromegrass (Bromus tectorum), field poppy (Papaver rhoeas), field violet (Viola arvensis), foxtail, green (green foxtail, Setaria viridis), deadnettle (henbit deadnettle, Lamium amplexicaule), ryegrass, Italian (Italian ryegrass, Lolium multiflorum), kochia (Kochia scoparia), lambsquarters (Chenopodium album), oilseed rape (Brassica napus), pigweed (Amaranthus retroflexus), chamomile (scentless chamomile, Matricaria inodora), Russian thistle (Salsola kali), speedwell (bird's-eye speedwell, Veronica persica), barley, spring (spring barley, Hordeum vulgare), wheat, spring (spring wheat, Triticum aestivum), buckwheat, wild (wild buckwheat, Polygonum convolvulus), mustard, wild (wild mustard, Sinapis arvensis), oat, wild (wild oat, Avena fatua), radish, wild (wild radish, Raphanus raphanistrum), windgrass (Apera spica-venti), barley, winter (winter barley, Hordeum vulgare), and wheat, winter (winter wheat, Triticum aestivum) were planted into a silt loam soil and treated preemergence with test chemicals formulated in a non-phytotoxic solvent mixture which included a surfactant.
(§2) At the same time, these species were planted in pots containing Redi-Earth® planting medium (Scotts Company, 14111 Scottslawn Road, Marysville, Ohio 43041) comprising spaghnum peat moss, vermiculite, wetting agent and starter nutrients and treated with postemergence applications of the test chemicals formulated in the same manner. Plants ranged in height from 2 to 18 cm (1- to 4-leaf stage). Treated plants and controls were maintained in a controlled growth environment for 14 to 21 d after which time all species were compared to controls and visually evaluated. Plant response ratings, summarized in Table D, are based on a scale of 0 to 100 where 0 is no effect and 100 is complete control. A dash (-) response means no test result.

[2] = system: radish, wild (wild radish, Raphanus raphanistrum)
Excerpt: as §1, §2

[3] = system: wheat, spring (spring wheat, Triticum aestivum)
Excerpt: as §1, §2

[4] = system: bluegrass (annual bluegrass, Poa annua)
Excerpt: as §1, §2

[5] = system: foxtail, green (green foxtail, Setaria viridis)
Excerpt: as §1, §2

[6] = system: lambsquarters (Chenopodium album)
Excerpt: as §1, §2

[7] = system: deadnettle (henbit deadnettle, Lamium amplexicaule)
Excerpt: as §1, §2

[8] = system: field poppy (Papaver rhoeas)
Excerpt: as §1, §2

[9] = system: windgrass (Apera spica-venti)
Excerpt: as §1, §2

[10] = system: field violet (Viola arvensis)
Excerpt: as §1, §2

[11] = system: oat, wild (wild oat, Avena fatua)
Excerpt: as §1, §2

For `Cc1cc(=O)n(-c2ccc(F)cc2)nc1Cc1ccnc(C(F)(F)F)c1` [Compound 1, 2-(4-fluorophenyl)-5-methyl-6-[[2-(trifluoromethyl)-4-pyridinyl]methyl]-3(2H)-pyridazinone], the Plant response rating ([1]; Postemergence, 31 g ai/ha) was 30, the Plant response rating ([1]; Postemergence, 62 g ai/ha) was 30 and the Plant response rating ([1]; Postemergence, 125 g ai/ha) was 30. For the same compound, the Plant response rating ([1]; Postemergence, 250 g ai/ha) was 60, the Plant response rating ([1]; Postemergence, 500 g ai/ha) was 50 and the Plant response rating ([1]; Preemergence, 125 g ai/ha) was 70. For the same compound, the Plant response rating ([1]; Preemergence, 250 g ai/ha) was 90, the Plant response rating ([1]; Preemergence, 500 g ai/ha) was 100 and the Plant response rating ([2]; Postemergence, 31 g ai/ha) was 10. For the same compound, the Plant response rating ([2]; Postemergence, 62 g ai/ha) was 25, the Plant response rating ([2]; Postemergence, 125 g ai/ha) was 35 and the Plant response rating ([2]; Postemergence, 250 g ai/ha) was 50. It also gave a Plant response rating ([2]; Postemergence, 500 g ai/ha) of 90, a Plant response rating ([2]; Preemergence, 62 g ai/ha) of 75 and a Plant response rating ([2]; Preemergence, 125 g ai/ha) of 60. For the same compound, the Plant response rating ([2]; Preemergence, 250 g ai/ha) was 100, the Plant response rating ([2]; Preemergence, 500 g ai/ha) was 100 and the Plant response rating ([3]; Postemergence, 31 g ai/ha) was 0. For the same compound, the Plant response rating ([3]; Postemergence, 62 g ai/ha) was 5, the Plant response rating ([3]; Postemergence, 125 g ai/ha) was 5 and the Plant response rating ([3]; Postemergence, 250 g ai/ha) was 10. For the same compound, the Plant response rating ([3]; Postemergence, 500 g ai/ha) was 10, the Plant response rating ([3]; Preemergence, 31 g ai/ha) was 0 and the Plant response rating ([3]; Preemergence, 62 g ai/ha) was 0. It also gave a Plant response rating ([3]; Preemergence, 125 g ai/ha) of 10, a Plant response rating ([3]; Preemergence, 250 g ai/ha) of 15 and a Plant response rating ([3]; Preemergence, 500 g ai/ha) of 75. For the same compound, the Plant response rating ([4]; Postemergence, 31 g ai/ha) was 5, the Plant response rating ([4]; Postemergence, 62 g ai/ha) was 5 and the Plant response rating ([4]; Postemergence, 125 g ai/ha) was 10. It also gave a Plant response rating ([4]; Postemergence, 250 g ai/ha) of 10, a Plant response rating ([4]; Postemergence, 500 g ai/ha) of 10 and a Plant response rating ([4]; Preemergence, 31 g ai/ha) of 0. The Plant response rating ([4]; Preemergence, 62 g ai/ha) was 0, the Plant response rating ([4]; Preemergence, 125 g ai/ha) was 0 and the Plant response rating ([4]; Preemergence, 250 g ai/ha) was 15. For the same compound, the Plant response rating ([4]; Preemergence, 500 g ai/ha) was 45, the Plant response rating ([5]; Postemergence, 31 g ai/ha) was 0 and the Plant response rating ([5]; Postemergence, 62 g ai/ha) was 0. For the same compound, the Plant response rating ([5]; Postemergence, 125 g ai/ha) was 0, the Plant response rating ([5]; Postemergence, 250 g ai/ha) was 20 and the Plant response rating ([5]; Postemergence, 500 g ai/ha) was 70. It also gave a Plant response rating ([5]; Preemergence, 31 g ai/ha) of 0, a Plant response rating ([5]; Preemergence, 62 g ai/ha) of 60 and a Plant response rating ([5]; Preemergence, 125 g ai/ha) of 100. For the same compound, the Plant response rating ([5]; Preemergence, 250 g ai/ha) was 100, the Plant response rating ([5]; Preemergence, 500 g ai/ha) was 100 and the Plant response rating ([6]; Postemergence, 31 g ai/ha) was 20. The Plant response rating ([6]; Postemergence, 62 g ai/ha) was 20, the Plant response rating ([6]; Postemergence, 125 g ai/ha) was 40 and the Plant response rating ([6]; Postemergence, 250 g ai/ha) was 40. For the same compound, the Plant response rating ([6]; Postemergence, 500 g ai/ha) was 45, the Plant response rating ([6]; Preemergence, 31 g ai/ha) was 0 and the Plant response rating ([6]; Preemergence, 62 g ai/ha) was 0. The Plant response rating ([6]; Preemergence, 125 g ai/ha) was 20, the Plant response rating ([6]; Preemergence, 250 g ai/ha) was 90 and the Plant response rating ([6]; Preemergence, 500 g ai/ha) was 100. For the same compound, the Plant response rating ([7]; Postemergence, 31 g ai/ha) was 10, the Plant response rating ([7]; Postemergence, 62 g ai/ha) was 25 and the Plant response rating ([7]; Postemergence, 125 g ai/ha) was 35. For the same compound, the Plant response rating ([7]; Postemergence, 250 g ai/ha) was 50, the Plant response rating ([7]; Postemergence, 500 g ai/ha) was 75 and the Plant response rating ([7]; Preemergence, 31 g ai/ha) was 20. For the same compound, the Plant response rating ([7]; Preemergence, 62 g ai/ha) was 40, the Plant response rating ([7]; Preemergence, 125 g ai/ha) was 100 and the Plant response rating ([7]; Preemergence, 250 g ai/ha) was 100. The Plant response rating ([7]; Preemergence, 500 g ai/ha) was 100, the Plant response rating ([8]; Postemergence, 31 g ai/ha) was 30 and the Plant response rating ([8]; Postemergence, 62 g ai/ha) was 60. It also gave a Plant response rating ([8]; Postemergence, 125 g ai/ha) of 60, a Plant response rating ([8]; Postemergence, 250 g ai/ha) of 80 and a Plant response rating ([8]; Postemergence, 500 g ai/ha) of 85. It also gave a Plant response rating ([8]; Preemergence, 31 g ai/ha) of 50, a Plant response rating ([8]; Preemergence, 62 g ai/ha) of 95 and a Plant response rating ([8]; Preemergence, 125 g ai/ha) of 95. The Plant response rating ([8]; Preemergence, 250 g ai/ha) was 100, the Plant response rating ([8]; Preemergence, 500 g ai/ha) was 100 and the Plant response rating ([9]; Postemergence, 31 g ai/ha) was 20. For the same compound, the Plant response rating ([9]; Postemergence, 62 g ai/ha) was 20, the Plant response rating ([9]; Postemergence, 125 g ai/ha) was 20 and the Plant response rating ([9]; Postemergence, 250 g ai/ha) was 20. For the same compound, the Plant response rating ([9]; Postemergence, 500 g ai/ha) was 20, the Plant response rating ([9]; Preemergence, 31 g ai/ha) was 0 and the Plant response rating ([9]; Preemergence, 62 g ai/ha) was 20. For the same compound, the Plant response rating ([9]; Preemergence, 125 g ai/ha) was 100, the Plant response rating ([9]; Preemergence, 250 g ai/ha) was 100 and the Plant response rating ([9]; Preemergence, 500 g ai/ha) was 100. For the same compound, the Plant response rating ([10]; Postemergence, 31 g ai/ha) was 20, the Plant response rating ([10]; Postemergence, 62 g ai/ha) was 50 and the Plant response rating ([10]; Postemergence, 125 g ai/ha) was 75. For the same compound, the Plant response rating ([10]; Postemergence, 250 g ai/ha) was 80, the Plant response rating ([10]; Postemergence, 500 g ai/ha) was 90 and the Plant response rating ([10]; Preemergence, 31 g ai/ha) was 60. For the same compound, the Plant response rating ([10]; Preemergence, 62 g ai/ha) was 80, the Plant response rating ([10]; Preemergence, 125 g ai/ha) was 90 and the Plant response rating ([10]; Preemergence, 250 g ai/ha) was 98. The Plant response rating ([10]; Preemergence, 500 g ai/ha) was 100, the Plant response rating ([11]; Postemergence, 31 g ai/ha) was 10 and the Plant response rating ([11]; Postemergence, 62 g ai/ha) was 10. The Plant response rating ([11]; Postemergence, 125 g ai/ha) was 10, the Plant response rating ([11]; Postemergence, 250 g ai/ha) was 10 and the Plant response rating ([11]; Postemergence, 500 g ai/ha) was 10. For the same compound, the Plant response rating ([11]; Preemergence, 62 g ai/ha) was 0, the Plant response rating ([11]; Preemergence, 125 g ai/ha) was 15 and the Plant response rating ([11]; Preemergence, 250 g ai/ha) was 35. The Plant response rating ([11]; Preemergence, 500 g ai/ha) was 80.
